From patent US4749701A, “Aminostyryl compound, leukotriene antagonistic composition containing the same as effective ingredients and method of antagonizing SRS by employing the same” (Mitsubishi Chemical Industries Limited, priority 1986, dated 1988)
Counter-ions that a name gives are not always drawn.

Experiment: Acute toxicity test
Details: mouse, in vivo
Experimental: With 4 to 5 ddy-strain male mice of 6 weeks old as one group, the compound of the present invention was orally administered as a suspension in 1% tragacanth solution, and observation was conducted for 7 days and the number of dead mice was examined to obtain the results shown in Table 3.

## O=C(O)CCC(=O)Nc1cccc(/C=C/c2ccc3ccccc3n2)c1 [compound 32, 2-[trans-3-(3-carboxypropanamide)styryl]quinoline.sodium salt]
po
  LD50 at 168 h: > 1000 mg/kg

## O=C(O)C=CC(=O)Nc1cccc(C=Cc2ccc3ccccc3n2)c1 [compound 45]
oral, suspension in 1% tragacanth, male ddy mice, 6 weeks old, observed for 7 days
  LD50 at 168 h: > 1000 mg/kg
